Measured values as given in EP1698638A1, “Lipopeptides having pharmaceutical activity” (Technische Universität Berlin, priority 2005, dated 2006).

What was measured:
Aspergillus fumigatus = test: serial dilution test, minimum inhibitory concentration (MIC); type: cell-based; settings: RPMI-1640 medium, 35 °C, 48 h
Experimental: (§1) The antifungal activity of the compounds according to the present invention, in particular hassallidin A and hassallidin B, was verified for Aspergillus fumigatus and Candida albicans by minimum inhibitory concentration (MIC) data in a serial dilution test. For each fungus six testing wells of a microtiter plate were prepared with 240 µL medium (Sigma RPMI-1640), 10 µL inoculum suspension and 50 µL fungicide solution (50% MeOH) of different concentrations. Inoculum preparation was carried out by guideline of NCCLS.^25 The fungicide solution preparation took place in a series of twofold dilutions from a stock solution of 92 µg/mL starting with 4.6 µg/50 µL down to 0.14 µg/50 µL. One well was prepared without antifungal agent for unhindered growth as control. The microtiter plates were incubated for Candida albicans and Aspergillus fumigatus at 35 °C for 24 h and 48 h, respectively. Tests were run in triplicates. Inhibition of growth was assessed by comparing the fungal growth of the test samples with the control well by determination of optical density at 595 nm in a microplate reader. The concentration of the well at highest dilution that was still free from growth was assigned the minimum inhibitory concentration (MIC in µg/mL). […] No activities were observed by using Bacillus subtilis, Streptomyces versicolor or Escherchia coli in disk diffusion assays on LB-agar plates with 10 µg hassallidin A in 30 µL 50% MeOH per disk.

Candida albicans = test: as above; type: cell-based; settings: RPMI-1640 medium, 35 °C, 24 h
Experimental: as §1

[1] = tested on: Jurkat ATCC-TIB-152 (human acute T cell leukemia) celline; test: cytotoxicity, cell viability by XTT test (1st test); type: cell-based
Experimental: Furthermore, the compounds according to the present invention were tested in relation to their activity against cancer cell lines. They were tested for cytotoxicity by determining the IC50-values. The IC50-value was determined by the procedure discrided in Filip P, Anke T, Sterner O, 5-(2'-oxoheptadecyl)-resorcinol and 5-(2'-oxononadecyl)-resorcinol, cytotoxic metabolites from a wood-inhabiting basidiomycete, ZNaturforsch [C]. 2002 Nov-Dec;57(11-12):1004-8. Sample preparation was carried out as follows: 1 st test The compound (hassalidin B) (20 µg) was dissolved in 4 µl DMSO and 16 µl H2O to give a concentration of 1 mg/ml. 1 µl of this solution and 0,5 µl of this solution were used to inoculate 200 µl culture medium each, thus making up a concentration of hassallidin B of 5µg/ml and 2,5 µ/ml, respectively. Thereafter 68 µl H2O were added to 17 µl of the solution of 1 mg/ml hassalidin B to give a concentration of 200 µg/ml, and again 1 µl and 0,5 µl of this solution were used to inoculate 200 µl of culture medium each thus making up a final concentration of hassallidin B of 1 µg/ml and 0,5 µg/ml, respectively. […] Cell viability of cell growing was measured by the XTT test (Boehringer, Mannheim/Roche) as discribed in the product information. […]

ATCC 6258 (QC) = test: microdilution assay (NCCLS), inhibitory concentration (IC); type: cell-based, Candida krusei; settings: Table 4 series, RPMI-1640 medium
[2] = tested on: Cryptococcus neoformas RKI 18/05; test: as above; type: cell-based; settings: RPMI-1640 medium
Experimental: More specifically, a determination of inhibitory concentration (IC) of hassallidin A and hassallidin B for various fungi, Candida species and Candida strains were performed with different media (RPMI-1640 or SAB or AM3) in a microdilution assay by following the guidelines in NCCLS documents M^38-P^25 and M27-A2^26 carried out as follows Each substance was dissolved with 100% dimethyl sulfoxide (Serva, Heidelberg, Germany) to give a stock solution of 3.2 mg/ml followed by nine log2 dilution steps with the solvent. This served as a 100-fold concentrated dilution series ranging from 1.6 mg/ml to 0.003 mg/ml of the test substance. The final concentration of the test substance was 16 µg/ml to 0.031 µg/ml.
Therefore the 100-fold concentrated dilution series (with 100% DMSO) was diluted to the final concentration by two dilution steps: • (1) Each concentration of the 100-fold concentrated substance was diluted with test medium for 1:50 (for ex.: adding of 13 µl of the test substance to 637 µl test medium). • (2) 100 µl of each 1:50 diluted concentration was filled in a row of wells of a microtitre plate. One well was without the substance but with the 1:50 diluted solvent serving as growth control.
A further 1:2 dilution of the antifungal was made by the inoculation of each well with 100 µl of the test organism, which was suspended in the test medium. The remaining well of the row was used for sterility control of the medium. The inoculum was strictly prepared according the NCCLS^25 guidelines, resulting in […] for Candida-species and Cryptococcus neoformans. For hyphomycetes CFU's were tenfold higher (see NCCLS). ^26 The growth of the hyphomycetes respectively the inhibition was measured by visual reading with the help of a reading mirror; scoring was done according to NCCLS :^26 score 0 corresponds to a optical clear well or an IC95 or higher, score 1 corresponds to an inhibition of 80 percent (IC80) and the score 2 of the NCCLS definition corresponds to the IC50 values in the tables. […] The percent inhibition IC50, IC80 or IC95 (corresponding the scores of 2, 1 and 0) was calculated by the following formula: (100−[(ODof the well−ODof the medium)] × 100)/((ODof the growth control−ODof the medium).) [formula] Table 3. Test series for determining IC values of hassallidin A and B in different media using Candida albicans and Candida krusei. The IC values were measured after 24 h and 48 h at 30 °C.

Bacillus subtilis = test: disk diffusion assay on LB-agar plates; type: cell-based; settings: 10 µg in 30 µL 50% MeOH per disk
Experimental: as §1

Streptomyces versicolor = test: disk diffusion assay on LB-agar plates; type: cell-based; settings: 10 µg in 30 µL 50% MeOH per disk
Experimental: as §1

Escherchia coli = test: disk diffusion assay on LB-agar plates; type: cell-based; settings: 10 µg in 30 µL 50% MeOH per disk
Experimental: as §1

Substance	MIC (Aspergillus fumigatus) [µg/mL]	MIC (Candida albicans) [µg/mL]	IC50-value [1] [µg/mL]	IC80 (ATCC 6258 (QC); 35°C/24h) [µg/mL]	IC95 (ATCC 6258 (QC); 35°C/24h) [µg/mL]	IC80 (ATCC 6258 (QC); 35°C/48h) [µg/mL]	IC50 ([2]; 35°C/24h, visual)	IC80 ([2]; 35°C/24h, visual)	IC95 ([2]; 35°C/24h, visual)	IC50 ([2]; 35°C/48h) [µg/mL]	IC80 ([2]; 35°C/48h) [µg/mL]	IC95 ([2]; 35°C/48h) [µg/mL]	activity in disk diffusion assay (Bacillus subtilis)	activity in disk diffusion assay (Streptomyces versicolor)	activity in disk diffusion assay (Escherchia coli)
hassallidin B	4.8	4.8	0.2	–	–	–	–	–	–	–	–	–	–	–	–
hassallidin A	4.8	4.8	–	8	8	16	4 (visual) µg/mL	4 (visual) µg/mL	4 (visual) µg/mL	4	4	4	No activities	No activities	No activities
